Results on 32 compounds are retold here after ChEMBL document CHEMBL1250512, “Bile acid toxicity structure-activity relationships: correlations between cell viability and lipophilicity in a panel of new and known bile acids using an oesophageal cell line (HET-1A)” (Bioorg Med Chem, 2010).

The nature of series [1]: Cytotoxicity against human HuH7 cells assessed as cell viability at 500 uM after 24 hrs by MTT assay relative to control. It counts as cell-based, Huh-7.
Series [2] is described as follows: Cytotoxicity against human HET-1A cells assessed as cell viability at 500 uM after 24 hrs by MTT assay relative to control. It counts as cell-based. A general note: Tetrazolium dyes change colour on reduction, which living cells bring about.
A short description of series [3]: Cytotoxicity against human HET-1A cells assessed as cell viability after 24 hrs by MTT assay. It counts as cell-based.
A short description of series [4]: Cytotoxicity against human HET-1A cells assessed as cell viability at >1 mM after 24 hrs by MTT assay. It counts as cell-based.

A word on the viability: it is a read-out of living cells in per cent, often relative to untreated cells. For `C[C@H](CCCO)[C@H]1CC[C@H]2[C@@H]3[C@@H](O)C[C@@H]4C[C@H](O)CC[C@]4(C)[C@H]3CC[C@]12C`, the viability at 24 h, 500 µM is 44.5% in series [1] and 97.5% in series [2].

Usually CC50 stands for the concentration that lowers cell viability or growth by half. On to `C[C@H](CCCN=[N+]=[N-])[C@H]1CC[C@H]2[C@@H]3[C@@H](O)C[C@@H]4C[C@H](O)CC[C@]4(C)[C@H]3CC[C@]12C`, for which the CC50 at 24 h in series [3] was found to be 688 µM. In addition, the values for the viability at 24 h, 500 µM in series [1] and in series [2] were 45.1% and 75.9%, respectively.

On to `C[C@H](CCC(N)=O)[C@H]1CC[C@H]2[C@@H]3CC[C@@H]4C[C@H](O)CC[C@]4(C)[C@H]3C[C@H](O)[C@]12C`, for which the CC50 at 24 h in series [3] was determined as 39 µM. In addition, the viability at 24 h, 500 µM was found to be 25.2% in series [1] and 38.6% in series [2].

In the case of `C[C@H](CCC(=O)O)[C@H]1CC[C@H]2[C@@H]3CC[C@@H]4C[C@H](N=[N+]=[N-])CC[C@]4(C)[C@H]3C[C@H](O)[C@]12C`, the CC50 at 24 h in series [3] was found to be 71 µM. Also, the viability at 24 h, 500 µM in series [1] was determined as 37.1%; in series [2], 30.7%.

For the compound `C[C@H](CCC(=O)O)[C@H]1CC[C@H]2[C@@H]3CC[C@@H]4C[C@@H](N=[N+]=[N-])CC[C@]4(C)[C@H]3C[C@H](O)[C@]12C`, the CC50 at 24 h in series [3] was 97 µM. The results for the viability at 24 h, 500 µM in series [1] and in series [2] were 108% and 35.4%, respectively.

Take `C[C@H](CCC(=O)O)[C@H]1CC[C@H]2[C@@H]3CC[C@@H]4C[C@H](O)CC[C@]4(C)[C@H]3CC(=O)[C@]12C`: the viability at 24 h, 500 µM in series [1] was found to be 80.6%; in series [2], 81.8%.

On to `C[C@H](CCC(=O)O)[C@H]1CC[C@H]2[C@@H]3C(=O)C[C@@H]4C[C@H](O)CC[C@]4(C)[C@H]3CC[C@]12C`, for which the viability at 24 h, 500 µM is 75.6% in series [1] and 76.9% in series [2].

On to `CC(=O)O[C@@H]1CC[C@@]2(C)[C@H](CC(=O)[C@@H]3[C@@H]2CC[C@]2(C)[C@@H]([C@H](C)CCC(=O)O)CC[C@@H]32)C1`, for which, in series [3], the CC50 at 24 h was 366 µM. The figures for the viability at 24 h, 500 µM in series [1] and in series [2] were 77.7% and 47.2%, respectively.

For the compound `C[C@H](CCC(=O)O)[C@H]1CC[C@H]2[C@@H]3C(=O)C[C@@H]4CC(=O)CC[C@]4(C)[C@H]3CC[C@]12C`, the results for the viability at 24 h, 500 µM in series [1] and in series [2] were 54.6% and 93.5%, respectively.

As to `C[C@H](CCC(=O)O)[C@H]1CC[C@H]2[C@@H]3[C@@H](N=[N+]=[N-])C[C@@H]4C[C@H](O)CC[C@]4(C)[C@H]3CC[C@]12C`, the CC50 at 24 h in series [3] worked out at 99 µM. The viability at 24 h, 500 µM was determined as 64.1% in series [1] and 29% in series [2].

With `C[C@H](CCC(=O)O)[C@H]1CC[C@H]2[C@@H]3[C@@H](O)C[C@@H]4C[C@H](O)CC[C@]4(C)[C@H]3C[C@H](O)[C@]12C`, the viability at 24 h, 500 µM in series [1] stood at 82.3%; in series [2], 80.8%.

As to `COC(=O)CC[C@@H](C)[C@H]1CC[C@H]2[C@@H]3[C@@H](O)C[C@@H]4C[C@H](O)CC[C@]4(C)[C@H]3CC[C@]12C`, the viability at 24 h, 500 µM in series [1] came out at 81.2%; in series [2], 94.3%.

For the compound `C[C@H](CCC(=O)O)[C@H]1CC[C@H]2[C@@H]3[C@@H](O)C[C@@H]4C[C@H](N=[N+]=[N-])CC[C@]4(C)[C@H]3CC[C@]12C`, the CC50 at 24 h in series [3] amounted to 45 µM. In addition, the viability at 24 h, 500 µM in series [1] was 26.6%; in series [2], 36.8%.

Consider `C[C@H](CCC(=O)O)[C@H]1CC[C@H]2[C@@H]3[C@@H](O)C[C@@H]4C[C@@H](N=[N+]=[N-])CC[C@]4(C)[C@H]3CC[C@]12C`, for which the CC50 at 24 h in series [3] came out at 37 µM. Further, the viability at 24 h, 500 µM came out at 101% in series [1] and 30.3% in series [2].

On to `C[C@H](CCC(=O)O)[C@H]1CC[C@H]2[C@@H]3[C@@H](O)C[C@@H]4CCCC[C@]4(C)[C@H]3CC[C@]12C`, for which the CC50 at 24 h in series [3] worked out at 30 µM. The viability at 24 h, 500 µM is 23.7% in series [1] and 39.9% in series [2].

As to `C[C@H](C(=O)O)[C@H]1CC[C@H]2[C@@H]3[C@@H](O)C[C@@H]4C[C@H](O)CC[C@]4(C)[C@H]3CC[C@]12C`, in series [3], the CC50 at 24 h was found to be 799 µM. Moreover, the values for the viability at 24 h, 500 µM in series [1] and in series [2] were 74.8% and 80.5%, respectively.

For the compound `C[C@H](CCC#N)[C@H]1CC[C@H]2[C@@H]3[C@@H](O)C[C@@H]4C[C@H](O)CC[C@]4(C)[C@H]3CC[C@]12C`, the viability at 24 h, 500 µM in series [1] is 85.2%; in series [2], 94%.

For the compound `C[C@H](C#N)[C@H]1CC[C@H]2[C@@H]3[C@@H](O)C[C@@H]4C[C@H](O)CC[C@]4(C)[C@H]3CC[C@]12C`, the viability at 24 h, 500 µM was 87.3% in series [1] and 80.5% in series [2].

In the case of `C[C@H](CCC(=O)O)[C@H]1CC[C@H]2[C@@H]3[C@H](O)C[C@@H]4C[C@H](O)CC[C@]4(C)[C@H]3CC[C@]12C` [CHENODIOL], in series [3], the CC50 at 24 h was found to be 216 µM. Moreover, the results for the viability at 24 h, 500 µM in series [1] and in series [2] were 72.3% and 42.2%, respectively.

For the compound `C[C@H](CCC(=O)O)[C@H]1CC[C@H]2[C@@H]3[C@H](O)C[C@@H]4C[C@H](O)CC[C@]4(C)[C@H]3C[C@H](O)[C@]12C` [CHOLIC ACID], the CC50 at 24 h in series [3] was determined as 1080 µM. The viability at 24 h, 500 µM came to 90.8% in series [1] and 102% in series [2].

Turning to `C[C@H](CCC(=O)O)[C@H]1CC[C@H]2[C@@H]3C(=O)C[C@@H]4CC(=O)CC[C@]4(C)[C@H]3CC(=O)[C@]12C` [DEHYDROCHOLIC ACID], the viability at 24 h, 500 µM in series [1] was 54.4%; in series [2], 111%.

`C[C@H](CCC(=O)O)[C@H]1CC[C@H]2[C@@H]3CC[C@@H]4C[C@H](O)CC[C@]4(C)[C@H]3C[C@H](O)[C@]12C` [DEOXYCHOLIC ACID]: in series [3], the CC50 at 24 h was 257 µM. For the same compound, the viability at 24 h, 500 µM worked out at 57% in series [1] and 41.2% in series [2].

`C[C@H](CCC(=O)NCC(=O)O)[C@H]1CC[C@H]2[C@@H]3[C@H](O)C[C@@H]4C[C@H](O)CC[C@]4(C)[C@H]3CC[C@]12C` [GLYCOCHENODEOXYCHOLATE]: the Activity entry in series [4] is given as “Toxic”. Moreover, the CC50 at 24 h in series [3] came to 729 µM. Besides, the viability at 24 h, 500 µM in series [1] stood at 105%; in series [2], 130%.

In the case of `C[C@H](CCC(=O)NCC(=O)O)[C@H]1CC[C@H]2[C@@H]3[C@H](O)C[C@@H]4C[C@H](O)CC[C@]4(C)[C@H]3C[C@H](O)[C@]12C` [GLYCOCHOLIC ACID], the viability at 24 h, 500 µM was found to be 87.7% in series [1] and 105% in series [2].

As to `C[C@H](CCC(=O)NCC(=O)O)[C@H]1CC[C@H]2[C@@H]3CC[C@@H]4C[C@H](O)CC[C@]4(C)[C@H]3C[C@H](O)[C@]12C` [GLYCODEOXYCHOLATE], the Activity result in series [4] is reported as “Toxic”. Also, the CC50 at 24 h in series [3] turned out to be 1240 µM. Further, the results for the viability at 24 h, 500 µM in series [1] and in series [2] were 105% and 111%, respectively.

Turning to `C[C@H](CCC(=O)NCC(=O)O)[C@H]1CC[C@H]2[C@@H]3[C@@H](O)C[C@@H]4C[C@H](O)CC[C@]4(C)[C@H]3CC[C@]12C` [GLYCOURSODEOXYCHOLIC ACID], the viability at 24 h, 500 µM was 104% in series [1] and 109% in series [2].

Consider `C[C@H](CCC(=O)O)[C@H]1CC[C@H]2[C@@H]3C[C@H](O)[C@@H]4C[C@H](O)CC[C@]4(C)[C@H]3CC[C@]12C` [HYODEOXYCHOLIC_ACID], for which the viability at 24 h, 500 µM in series [1] was found to be 73.8%; in series [2], 88.2%.

Take `C[C@H](CCC(=O)O)[C@H]1CC[C@H]2[C@@H]3CC[C@@H]4C[C@H](O)CC[C@]4(C)[C@H]3C[C@@H](O)[C@]12C` [LAGODEOXYCHOLATE]: the CC50 at 24 h in series [3] came out at 389 µM. Moreover, the viability at 24 h, 500 µM in series [1] stood at 89%; in series [2], 59%.

On to `C[C@H](CCC(=O)O)[C@H]1CC[C@H]2[C@@H]3CC[C@@H]4C[C@H](O)CC[C@]4(C)[C@H]3CC[C@]12C` [LITHOCHOLIC ACID], for which, in series [3], the CC50 at 24 h amounted to 25 µM. Also, the viability at 24 h, 500 µM in series [1] was determined as 63.7%; in series [2] it was 41.7%.

`COC(=O)CC[C@@H](C)[C@H]1CC[C@H]2[C@@H]3CC[C@@H]4C[C@H](O)CC[C@]4(C)[C@H]3C[C@H](O)[C@]12C` [METHYL DEOXYCHOLATE]: the CC50 at 24 h in series [3] came to 46 µM. In addition, the viability at 24 h, 500 µM was 48.8% in series [1] and 28.1% in series [2].

In the case of `C[C@H](CC(=O)O)[C@H]1CC[C@H]2[C@@H]3[C@@H](O)C[C@@H]4C[C@H](O)CC[C@]4(C)[C@H]3CC[C@]12C` [NORUCHOLIC ACID], the viability at 24 h, 500 µM stood at 71.8% in series [1] and 88.8% in series [2].

Regarding `C[C@H](CCC(=O)O)[C@H]1CC[C@H]2[C@@H]3[C@@H](O)C[C@@H]4C[C@H](O)CC[C@]4(C)[C@H]3CC[C@]12C` [URSODIOL], the CC50 at 24 h in series [3] was 1310 µM. The values for the viability at 24 h, 500 µM in series [1] and in series [2] were 74% and 78.8%, respectively.
